The values that follow come from patent publication US20260373294A1, “PHARMACEUTICAL COMPOSITIONS COMPRISING A PSYCHEDELIC DRUG AND A DENDRITIC NANOCARRIER” (priority 2023, published 2026).

The subject of data set [1] is N-methyl-D-aspartate receptor (NMDAR). The note with it: cited from earlier work.
The conditions of data set [2]: cited from earlier work.
Data set [3] can be described thus: Exemplary stability experiment, visual grading of psilocin samples with carriers or stabilizers (Example 6). Format: physicochemical. Also on record: key to stability, visually graded, under Vacuum at 25 °C / stability, visually graded, at room temperature exposed to air / stability, visually graded, at 50 °C, exposed to air: 0: dark precipitate visible = not stable; 1: discolored = moderately stabilized; 2: slightly discolored = stabilized; 3: transparent = highly stabilized. An excerpt: Psilocin was mixed with two different batches of CMS carrier (DendroSol®), two different batches of dendritic succinate (hPG-succ, one of which had 25% substitution with succinate, the other one 100%) and two different batches of dendritic succinate functionalized with nalbuphine as anchor molecule (liked via an ester), as well as dendritic succinate deprotonized with NaOH. For comparison, we also mixed psilocin with known stabilizers oxalic acid and ascorbic acid (vitamin C), as well as mixtures of vitamin C with the carriers named above. One sample of pure psilocin solution was kept as a reference.
All samples contained 5 mg/L of psilocin and 2.5 wt % of carrier (for carriers mixed with oxalic acid or vitamin C, the total concentration of additives was 2.5 wt %). In the second part of the experiment, the carrier concentration was varied between 0.6 and 3 wt %.

The test system of another data set is 5-HT2A receptor. The note with it: cited from earlier work.
The conditions of data set [4]: cited from earlier work. The source holds these as a separate data set.
The conditions of data set [5]: intravenous administration of psilocybin; US2022370413A1; cited from earlier work.
A short description of data set [6]: Diffusion cell tests with porcine oral mucosa (Franz cells) (Example 8). Format: in vitro ADME. The note with it: 2.5% DendroSol; 0.025 mg/100 μL LSD. On the procedure: FIG. 3 Diffusion cell tests with psilocin, LSD and MDMA in Franz cells in the absence and presence of carrier. The tests were carried out with porcine oral mucosa as described in Example 8 below. Each carrier formulation was used on four diffusion cells each. In the graphic, mean values are shown.
Diffusion cell tests were carried out with porcine oral mucosa. Porcine mucosa was freshly prepared and kept in physiological buffer at pH 7.2 at temperatures between 2-8 °C for less than 36 h prior the experiment. The prepared oral mucosa thickness was 0.4-0.65 mm. Concentrations were determined by HPLC-UV. Four diffusion cells with a surface area of 0.54 cm^2 and an acceptor volume of 12.7 mL were used in the experiments for each formulation. Drug-carrier solutions wherein the solvent was water were prepared by either dissolving the drug in ethanol in a glass beaker, letting the ethanol evaporate under high vacuum and then dissolving the drug in the buffered nanocarrier solution. Alternatively, the drug was mixed with the carrier in ethanol in final conditions, the resulting mixture was dried under high vacuum in case of psilocin and afterwards re-dissolved in purified HPLC water.
Each carrier formulation was used on four diffusion cells each. In the graphic, the results were averaged.
Acceptor medium was physiological NaCl solution which was phosphate-buffered to pH 7.2. […]

The conditions of data set [7]: taken by mouth; cited from earlier work.

Each structure is given as a SMILES string. Entries after “also recorded” stand apart in the source; their conditions may differ. Like-named read-outs stand apart in the source and are kept apart here.

`CN[C@]1(c2ccccc2Cl)CCCCC1=O` [(S)-ketamine]: in data set [1], the “NMDAR antagonism / interaction” value is “stronger”.

For `CN(C)CCc1c[nH]c2cccc(O)c12` [Psilocin], the “stability in biological samples” value in data set [2] (blood or urine) is “unstable and is degraded fast by both non-enzymatic and enzymatic processes”. In addition, the “stability in ambient and aqueous environments” value in data set [2] (exposed to air and aqueous) was “poor stability due to photodegradation and oxidation”. The “peak loss over 14 days” value in data set [2] (psilocin sample protected from light, 14 days) is given as 50%. In addition, the “stability, visually graded, at 50 °C, exposed to air” value in data set [3] (50 °C, exposed to air, all samples contain psilocin (5 mg/L) and 2.5 wt % carrier/additive) is 0. Moreover, the “stability of psilocin, conclusion” value in data set [3] (conclusion in words) is “could be significantly improved by adding the right carriers”. Further, in data set [3] (order of effectiveness, lowest first), the “effectiveness of carriers for stabilizing psilocin (ranking)” value is given as “pure psilocin<CMS carrier (DendroSol®)<oxalic acid<dendritic succinate (25%)<dendritic succinate (100%)=functionalized dendritic succinate=dendritic succinate deprotonized with NaOH”. Further, the “stability, visually graded, at room temperature exposed to air” value in data set [3] (room temperature, exposed to air, all samples contain psilocin (5 mg/L) and 2.5 wt % carrier/additive) was 0. The “stability, visually graded, under Vacuum at 25 °C” value in data set [3] (under vacuum at 25 °C, all samples contain psilocin (5 mg/L) and 2.5 wt % carrier/additive) was 3. In addition, the 5-HT2A receptor agonism in the data set with 5-HT2A receptor is recorded as 5-HT2A receptor agonists.

As to `COc1cc(CCN)cc(OC)c1OC` [mescaline], the 5-HT2A receptor agonism with 5-HT2A receptor is recorded as 5-HT2A receptor agonists.

In the case of `CNC1(c2ccccc2Cl)CCCCC1=O` (stereo not shown) [ketamine], in data set [1], the “NMDAR antagonism / interaction” value is reported as “antagonist of the N-methyl-D-aspartate receptor”.

With `CN[C@@]1(c2ccccc2Cl)CCCCC1=O` [(R)-ketamine], the “antidepressant potency and duration, relative” value in data set [4] ((R)-ketamine relative to (S)-ketamine) was “more long-lasting; also recorded: greater potency and longer-lasting antidepressive effects”.

For the compound `CN(C)CCc1c[nH]c2cccc(OP(=O)(O)O)c12` [psilocybin], in data set [5], the “variation of maximum plasma concentrations of psilocin between individuals” value is “can vary over three-fold between individuals”.

Consider `CNC1(c2ccccc2Cl)CCCCC1=O` (racemic) [(R,S)-ketamine], for which the “NMDAR antagonism / interaction” value in data set [1] is reported as “antagonist of the NMDAR”. Moreover, the “effect in treatment-resistant PTSD” value in data set [4] (patients with treatment-resistant post-traumatic stress disorder) is reported as “beneficial effects”. In data set [4] (treatment-resistant MDD or BD, single or repeated intravenous infusions, 0.5 mg/kg), the antidepressant effect result is “robust antidepressant and antisuicidal effects”.

In the case of `CCN(CC)C(=O)[C@@H]1C=C2c3cccc4[nH]cc(c34)C[C@H]2N(C)C1` [LSD], in data set [6], the “effect of carrier on diffusion rate, water vs ethanol as solvent” value is listed as “the effect was greater when water was used as solvent than with use of ethanol as solvent”. Further, the 5-HT2A receptor agonism entry was “partial agonist with a high affinity to this receptor” with 5-HT2A receptor (listed as (+) lysergide) and 5-HT2A receptor agonists in the data set on 5-HT2A receptor (listed as lysergide).

With `CNC(C)Cc1ccc2c(c1)OCO2` (stereo not shown) [MDMA, 3,4-methylenedioxymethamphetamine], in data set [7], the duration of effects is 3 to 6 h and the onset of effects is 30 to 45 min.
